{
  "source": "patent US9517988B2",
  "about": "(Sichuan Haisco Pharmaceutical Co., Ltd., priority 2013, dated 2016)",
  "key": {"[1]": {"system": "ICR mice", "test": "Righting reflex experiment on mice", "details": "for ED50: Mus musculus, iv; for Anesthesia induction time / Anesthesia maintenance time / HD7: mice; for Anesthesia induction time / Anesthesia maintenance time: intravenous injection; for Anesthesia induction time: end of administration until loss of righting reflex; for Anesthesia maintenance time: loss until recovery of righting reflex; for HD7: dose required to cause a 7-min anesthesia; for TI: therapeutic index, LD50/ED50, mice", "protocol": "(§1) LD5 (5% lethal dose): dose required to cause 5% of mice to die in a test.\n(§2) If a normal animal was able to immediately turn its body to normal upright position after being pushed over or made lying on its back, such a reflex was determined as the righting reflex. Otherwise, loss of the righting reflex and the time of loss were recorded, and a reflex recovery time was recorded when the animal restored the righting reflex. The period from finishing of drug administration until loss of the righting reflex was recorded as the anesthesia induction time, and the period from loss of the righting reflex until recovery of the righting reflex was recorded as the anesthesia maintenance time.\n(§3) TI (therapeutic index, i.e. LD50/ED50), SI (safety index, i.e. LD5/ED95).\n(§4) MTD (maximum tolerated dose): the maximum dose able to cause 100% to loss the righting index without death.\n(§5) Indicators such as median effective dose (ED50), median lethal dose (LD50), therapeutic index (TI, i.e. LD50/ED50), safety index (SI, i.e. LD5/ED95), anesthesia induction time, anesthesia maintenance time, and maximum tolerated dose (MTD) were used to evaluate the effect and safety of anesthesia. […] After adapting to the laboratory environment, laboratory animals were fasted for 12 hours. On the next day, administration was carried out at 10 mg/kg body weight. Upon intravenous injection, the time of loss of the righting reflex was recorded. The period from finishing of drug administration until loss of the righting reflex was recorded as the anesthesia induction time, and the period from loss of the righting reflex until recovery of the righting reflex was recorded as the anesthesia maintenance time. The anesthesia induction time and the anesthesia maintenance time were used to indicate how strong an anesthetic effect was. Meanwhile, the dose required to cause a 7-min anesthesia (HD7) was measured and used to evaluate relative efficacy."}, "[2]": {"test": "Pharmacokinetic experiment on rats", "type": "in vivo, SD rats", "details": "male, Sprague-Dawley, rat, plasma; Intravenous Injection into Rats (1 mg/kg)", "protocol": "3 male SD rats, each weighing 180 to 240 g, were fasted overnight with water access. A 1 mL/kg solution of the compound was formulated with 10% DMA, 20% solutol HS-15 (30%, w/v) and 70% physiological saline. Blood was sampled before administration and 2 min, 4 min, 8 min, 12 min, 15 min, 30 min, 1 h, 1.5 h and 2 h after administration. Blood samples were centrifuged at 5500 rpm for 10 min, and plasma was collected and stored at −40° C. 10 μl rat plasma from each time point was added to a 200 μl acetonitrile solution containing an internal standard and mixed, followed by 1-min vortexing and 18-min centrifugation at 3700 rpm. Then 70 μl supernatant was mixed with 70 μl water, and 10 μl of the mixture was analyzed by LC-MS/MS. Major pharmacokinetic parameters were subjected to a non-compartment analysis with the software WinNonlin 6.3."}, "[3]": {"test": "Pharmacokinetic analysis with prodrugs in rats", "type": "in vivo, SD rats", "details": "male, Sprague-Dawley, rat, plasma, iv, 10 mg/kg", "protocol": "3 male SD rats, each weighing 180 to 240 g, were fasted overnight with water access. After a single intravenous administration of a prodrug at 10 mg/kg to rats, the plasma concentrations of the prodrug and the active form were each measured by LC-MS/MS, and the pharmacokinetic parameters were analyzed."}, "[4]": {"system": "ICR mice", "test": "Righting reflex experiment on mice with prodrugs", "type": "in vivo", "protocol": "After adapting to the laboratory environment, the SPF-grade ICR mice were fasted for 12 hours."}, "[5]": {"test": "Efficacy experiment on rats with prodrugs", "type": "in vivo", "details": "both sexes, Sprague-Dawley, rat, in vivo, intravenous, SD rats", "protocol": "(§6) This experiment selected SD rats, each weighing 180 to 200 g. The rats were randomized, with 10 animals per group, half male and half female. […] The time of administration, time of loss of the righting reflex, time of recovery of the righting reflex, and time of walking were recorded. Adverse effects shown by the rats after administration were also recorded.\n(§7) Time of loss of the righting reflex: the righting reflex is lost; a rat made lying on its back can maintain the lying for a period of 60 s;\n(§8) Time of recovery of the righting reflex: the righting reflex ability is restored; a rat made lying on its back rights in less than 2 s;\n(§9) Time of walking: spontaneous forwarding moving occurs, and muscle tension of the limbs recovers.\n(§10) Using GraphPad Prism 5, ED50 and LD50 values were calculated from a non-linear fitting of number of anesthetic or dead animals resulting from various doses."}, "[6]": {"system": "SD rats", "test": "Efficacy experiment on rats with prodrugs", "type": "in vivo", "protocol": "as §6, §7, §8, §9, §10"}, "[7]": {"system": "Beagle dogs", "test": "Haemodynamic effects in Beagle dogs", "type": "in vivo", "details": "for Dose required to produce the same anesthetic effect: Beagle dogs, intravenous emulsion for injection", "protocol": "Data of various indicators such as electrocardiogram, blood pressure and body temperature of the animals were continuously collected from about 3.5 hours before administration until 6 hours after administration."}, "[8]": {"system": "GABAA receptors", "details": "CHO/GABAA; for EC50: enhancement of muscimol-induced GABAA receptor current, whole-cell patch-clamp", "method": "Various concentrations of test compounds and muscimol were added together to CHO/GABAA, and the current mediated by GABAA receptors was measured. Two measurements were performed for each concentration to obtain an average response current. The enhancement of the current mediated by GABAA receptors was calculated by the following equation: Enhancement (%)=100*(Test Compound−Control)/Control\nThe Control group is the peak current amplitude induced by muscimol, and the Test Compound group is the peak current amplitude co-induced by the test compounds and muscimol. The enhancement (%) was calculated for each concentration, and EC50 was calculated by normalization."}, "[9]": {"details": "injection; cited from earlier work"}, "[10]": {"test": "Righting reflex experiment on mice", "details": "both, ICR, mouse, in vivo", "protocol": "as §1, §2, §3, §4, §5"}, "[11]": {"details": "mice, intravenous injection, prodrugs"}},
  "data": [
    {"smiles": "CC(C)c1cccc(C(C)C)c1O", "note": "[Propofol, reference compound]", "values": [
      {"measurement": "ED50", "setting": "[1]", "result": 11.7, "unit": "mg/kg"},
      {"measurement": "Anesthesia induction time", "setting": "[1]", "result": "<15.0", "unit": "s"},
      {"measurement": "Anesthesia maintenance time", "setting": "[1]", "result": 652.5, "unit": "s"},
      {"measurement": "HD7", "setting": "[1]", "result": 14.0, "unit": "mg/kg"},
      {"measurement": "TI", "setting": "[1]", "result": 2.7},
      {"measurement": "AUC(0-t)", "setting": "[2]", "result": 81.9, "unit": "ng·h/mL"},
      {"measurement": "clearance", "setting": "[2]", "result": 204, "unit": "mL/min/kg"},
      {"measurement": "half-life", "setting": "[2]", "result": 42, "unit": "min"},
      {"measurement": "AUC(0-t)", "setting": "[3]", "result": 81.9, "unit": "ng·h/mL"},
      {"measurement": "clearance", "setting": "[3]", "result": 204, "unit": "mL/min/kg"},
      {"measurement": "half-life", "setting": "[3]", "result": 42, "unit": "min"},
      {"measurement": "ED50", "setting": "[4]; Mus musculus, mice, intravenous injection, prodrugs formulated with physiological saline, read-out: ED50", "result": 11.7, "unit": "mg/kg"},
      {"measurement": "Anesthesia induction time", "setting": "[4]; [11]", "result": "<15.0", "unit": "s"},
      {"measurement": "Anesthesia maintenance time", "setting": "[4]; [11]", "result": 652.5, "unit": "s"},
      {"measurement": "MTD", "setting": "[4]; mice, prodrugs", "result": 20.0, "unit": "mg/kg"},
      {"measurement": "TI", "setting": "[4]; therapeutic index, LD50/ED50, mice, prodrugs", "result": 2.7},
      {"measurement": "MTD", "setting": "[5]", "result": 12.5, "unit": "mg/kg"},
      {"measurement": "LD50", "setting": "[5]; tail vein, non-linear fitting", "result": 19.1, "unit": "mg/kg"},
      {"measurement": "ED50", "setting": "[6]; Rattus norvegicus, SD rats, tail vein, non-linear fitting", "result": 5.7, "unit": "mg/kg"},
      {"measurement": "Anesthesia induction time", "setting": "[6]; SD rats, tail vein", "result": 0.0, "unit": "s"},
      {"measurement": "Anesthesia maintenance time", "setting": "[6]; SD rats, tail vein", "result": 652.0, "unit": "s"},
      {"measurement": "TI", "setting": "[6]; therapeutic index, LD50/ED50, rats", "result": 3.4},
      {"measurement": "Dose required to produce the same anesthetic effect", "setting": "[7]", "result": 10, "unit": "mg/kg"},
      {"measurement": "Effect on the ion channels of GABAA receptors", "setting": "[8]; patch clamp", "result": "activating effect"},
      {"measurement": "EC50", "setting": "[8]", "result": 5.3, "unit": "µM"},
      {"measurement": "Patients on injections feeling certain pain or discomfort", "setting": "[9]", "result": "approximately 70%"}
    ]},
    {"smiles": "CC(C)c1cccc([C@H](C)C2CC2)c1O", "note": "[Compound 16, 2-[(1R)-1-cyclopropylethyl]-6-isopropyl-phenol]", "values": [
      {"measurement": "MTD", "setting": "[10]; intravenous", "result": 6, "unit": "mg/kg"},
      {"measurement": "LD50", "setting": "[10]; iv", "result": 9.9, "unit": "mg/kg"},
      {"measurement": "ED50", "setting": "[1]", "result": 1.5, "unit": "mg/kg"},
      {"measurement": "Anesthesia induction time", "setting": "[1]", "result": "<15.0", "unit": "s"},
      {"measurement": "Anesthesia maintenance time", "setting": "[1]", "result": 631.9, "unit": "s"},
      {"measurement": "HD7", "setting": "[1]", "result": 3.5, "unit": "mg/kg"},
      {"measurement": "SI", "setting": "[1]; safety index, LD5/ED95, mice", "result": 4.1},
      {"measurement": "TI", "setting": "[1]", "result": 6.7},
      {"measurement": "AUC(0-t)", "setting": "[2]", "result": 168, "unit": "ng·h/mL"},
      {"measurement": "clearance", "setting": "[2]", "result": 105, "unit": "mL/min/kg"},
      {"measurement": "half-life", "setting": "[2]", "result": 30, "unit": "min"},
      {"measurement": "Dose required to produce the same anesthetic effect", "setting": "[7]", "result": 2, "unit": "mg/kg"},
      {"measurement": "Effect on the heart rate and blood pressure", "setting": "[7]; conscious Beagle dogs, Compound 16 2 mg/kg vs propofol 10 mg/kg", "result": "smaller than that of propofol"},
      {"measurement": "Activity compared with propofol", "setting": "[8]; patch clamp", "result": "lower ED50"},
      {"measurement": "Effect on the ion channels of GABAA receptors", "setting": "[8]; patch clamp", "result": "activating effect"},
      {"measurement": "EC50", "setting": "[8]", "result": 1.1, "unit": "µM"}
    ]}
  ]
}
